In ChEMBL document CHEMBL5241092, “The antibacterial activity of fluoroquinolone derivatives: An update (2018-2021)” (2021) one finds MIC and MIC90 data, which are given here for 25 compounds.

Holding throughout (assay type): functional
In assay [1] the test system is Lactobacillus acidophilus. The assay can be described thus: Antibacterial activity against Lactobacillus acidophilus.
In assay [2] the test system is Listeria monocytogenes. The assay can be described thus: Antibacterial activity against Listeria monocytogenes.
Assay [3] relates to Staphylococcus aureus. In words: Antibacterial activity against Staphylococcus aureus.
For assay [4], the system named is Yersinia pseudotuberculosis. In words: Antibacterial activity against Yersinia pseudotuberculosis.
The subject of assay [5] is Enterococcus faecalis. The assay can be described thus: Antibacterial activity against Enterococcus faecalis.
For assay [6], the system named is Klebsiella pneumoniae. The assay can be described thus: Antibacterial activity against Klebsiella pneumoniae.
In assay [7] the test system is Escherichia coli. In words: Antibacterial activity against Escherichia coli.
Assay [8] relates to Pseudomonas aeruginosa. The assay can be described thus: Antibacterial activity against Pseudomonas aeruginosa.
The subject of assay [9] is Bacillus cereus. In words: Antibacterial activity against Bacillus cereus.
The test system of assay [10] is Staphylococcus epidermidis. In words: Antibacterial activity against Staphylococcus epidermidis.

Converted amounts (≈) assume the structure as drawn.

By MIC is commonly meant the least concentration at which growth counts as inhibited. Higher therefore signals weaker potency. On to `COc1c(N2C[C@H]3CCCN(S(=O)(=O)c4ccc([N+](=O)[O-])cc4)[C@H]3C2)c(F)cc2c(=O)c(C(=O)O)cn(C3CC3)c12`, for which the MIC in [1], in assay [2], in assay [3], in assay [4], in [5] and in assay [6] was less than 2.42 µg/mL throughout. The MIC in assay [7] and in assay [8] was less than 2.42 µg/mL each time.

On to `COc1c(N2C[C@H]3CCCN(S(=O)(=O)c4ccc(C)cc4)[C@H]3C2)c(F)cc2c(=O)c(C(=O)O)cn(C3CC3)c12`, for which the MIC in assay [1], in assay [2], in [3], in [4], in assay [5] and in assay [6] was less than 2.42 µg/mL throughout. For the same compound, the MIC in assay [7] and in assay [8] was less than 2.42 µg/mL each time.

In the case of `COc1c(N2C[C@H]3CCCN(C(=O)c4ccc(F)cc4)[C@H]3C2)c(F)cc2c(=O)c(C(=O)O)cn(C3CC3)c12`, the MIC in assay [1] was less than 1.23 µg/mL; in [9], not above 1.23 µg/mL; in assay [2] it was not above 1.23 µg/mL; in assay [3], not above 1.23 µg/mL; in assay [4], less than 1.23 µg/mL; in assay [5], not above 1.23 µg/mL. The MIC in [6], in assay [7] and in assay [8] was less than 1.23 µg/mL each time.

On to `O=C(CSC(=S)N1CCN(c2cc3c(cc2F)c(=O)c(C(=O)O)cn3C2CC2)CC1)Nc1cccc(Cl)c1`, for which the results for the MIC in [7], in assay [8] and in assay [10] were 0.024 µg/mL (≈ 0.0417 µM), 0.195 µg/mL (≈ 0.339 µM) and 0.024 µg/mL (≈ 0.0417 µM), respectively.

On to `CCn1cc(C(=O)O)c(=O)c2cc(F)c(N3CCN(CCC(=O)Nc4ccc(/C(C)=N\OC)cc4)CC3)cc21`, for which the MIC in assay [6] is more than 50 µg/mL.

In the case of `COc1c(N2C[C@H]3CCCN(Cc4ccc(C)cc4)[C@H]3C2)c(F)cc2c(=O)c(C(=O)O)cn(C3CC3)c12`, the MIC in assay [1], in [2], in [3], in assay [4], in assay [5] and in assay [6] was less than 2.39 µg/mL throughout. In addition, the MIC in assay [7] and in assay [8] was less than 2.39 µg/mL each time.

`CCN1CCN(c2cc3c(cc2F)c(=O)c(C(=O)O)cn3CC)CC1`: the MIC in assay [3], in assay [6], in assay [7] and in assay [8] was 1.1 µg/mL (≈ 3.17 µM) throughout.

For `COc1c(N2C[C@H]3CCCN(C(=O)c4ccc(Br)cc4)[C@H]3C2)c(F)cc2c(=O)c(C(=O)O)cn(C3CC3)c12`, the MIC is less than 1.23 µg/mL in assay [1]; not above 1.23 µg/mL in assay [9]; not above 1.23 µg/mL in assay [2]; not above 1.23 µg/mL in assay [3]; less than 1.23 µg/mL in assay [4]; not above 1.23 µg/mL in assay [5]. In addition, the MIC in assay [6], in assay [7] and in assay [8] was less than 1.23 µg/mL in each case.

With `COc1c(N2C[C@H]3CCCN(C(=O)c4ccccc4)[C@H]3C2)c(F)cc2c(=O)c(C(=O)O)cn(C3CC3)c12`, the minimal inhibitory concentration (MIC) in assay [1], in [9], in assay [2], in [3], in assay [4] and in assay [5] was less than 1.23 µg/mL each time. Moreover, the MIC in assay [6], in assay [7] and in assay [8] was less than 1.23 µg/mL in each case.

Regarding `C=CCn1c(SCC(=O)N2CCN(c3cc4c(cc3F)c(=O)c(C(=O)O)cn4C3CC3)CC2)nnc1-c1ccccc1`, the MIC in [3], in [6], in [7] and in assay [8] was 1.42 µg/mL (≈ 2.41 µM) throughout.

`C=Cn1c(SCC(=O)N2CCN(c3cc4c(cc3F)c(=O)c(C(=O)O)cn4C3CC3)CC2)nnc1-c1ccccc1`: the minimal inhibitory concentration (MIC) stood at 1.7 µg/mL (≈ 2.96 µM) in assay [3], 1.7 µg/mL (≈ 2.96 µM) in assay [6], 1.7 µg/mL (≈ 2.96 µM) in [7] and 1.42 µg/mL (≈ 2.47 µM) in assay [8].

In the case of `COc1c(N2C[C@H]3CCCN(Cc4ccc(Cl)cc4)[C@H]3C2)c(F)cc2c(=O)c(C(=O)O)cn(C3CC3)c12`, the MIC in assay [1], in assay [2], in assay [3], in assay [4], in assay [5] and in assay [6] was less than 2.39 µg/mL in each case. Moreover, the MIC in assay [7] and in assay [8] was less than 2.39 µg/mL throughout.

Turning to `COc1ccc(CN2CCC[C@@H]3CN(c4c(F)cc5c(=O)c(C(=O)O)cn(C6CC6)c5c4OC)C[C@@H]32)cc1`, the MIC in [1], in assay [2], in assay [3], in assay [4], in [5] and in [6] was less than 2.39 µg/mL in each case. Further, the MIC in assay [7] and in assay [8] was less than 2.39 µg/mL throughout.

For the compound `COc1c(N2C[C@@H]3CCCN[C@@H]3C2)c(F)cc2c(=O)c(C(=O)O)cn(C3CC3)c12` [MOXIFLOXACIN], the MIC in [9], in assay [2] and in assay [5] was less than 0.6 µg/mL throughout.

As for `COc1c(N2C[C@H]3CCCN(S(=O)(=O)c4ccc(Cl)cc4)[C@H]3C2)c(F)cc2c(=O)c(C(=O)O)cn(C3CC3)c12`, the MIC in assay [1], in assay [2], in [3], in assay [4], in assay [5] and in [6] was less than 2.42 µg/mL in each case. Further, the minimum inhibitory concentration (MIC) in [7] and in assay [8] was less than 2.42 µg/mL throughout.

A word on the MIC90: it is an inhibitory concentration at the 90% level, which refers to growth in some studies and to a panel of isolates in others. Take `CC[C@H](C)[C@H](NC(=O)[C@H](CCCCN)NC(=O)[C@H](CCCCN)NC(=O)[C@H](C)NC(=O)[C@H](CC(C)C)NC(=O)[C@H](C)NC(=O)[C@H](C)NC(=O)[C@H](CC(C)C)NC(=O)[C@H](C)NC(=O)[C@H](CCCCN)NC(=O)[C@H](CC(C)C)NC(=O)[C@H](CC(N)=O)NC(=O)[C@@H](NC(=O)[C@H](CCCCN)NC(=O)CNC(=O)[C@H](CC(C)C)NC(=O)[C@H](CC(C)C)NC(=O)[C@H](Cc1ccc(O)cc1)NC(=O)CNC(=O)[C@H](C)NC(=O)CCSSCCC(=O)N1CCN(c2cc3c(cc2F)c(=O)c(C(=O)O)cn3C2CC2)CC1)[C@@H](C)CC)C(=O)N[C@@H](CC(C)C)C(N)=O`: the MIC90 in assay [3], in [7], in assay [8] and in assay [10] was 0.025 µg/mL (≈ 0.0093 µM) each time.

With `COc1c(N2C[C@H]3CCCN(Cc4ccc([N+](=O)[O-])cc4)[C@H]3C2)c(F)cc2c(=O)c(C(=O)O)cn(C3CC3)c12`, the MIC in [1], in [2], in assay [3], in assay [4], in assay [5] and in assay [6] was less than 2.39 µg/mL in each case. Besides, the MIC in assay [7] and in assay [8] was less than 2.39 µg/mL throughout.

As for `COc1c(N2C[C@H]3CCCN(S(=O)(=O)c4ccccc4)[C@H]3C2)c(F)cc2c(=O)c(C(=O)O)cn(C3CC3)c12`, the MIC in [1], in assay [2], in [3], in assay [4], in [5] and in assay [6] was less than 2.42 µg/mL each time. Also, the MIC in assay [7] and in assay [8] was less than 2.42 µg/mL in each case.

With `COc1c(N2C[C@H]3CCCN(Cc4ccc(Br)cc4)[C@H]3C2)c(F)cc2c(=O)c(C(=O)O)cn(C3CC3)c12`, the MIC in assay [1], in assay [2], in [3], in [4], in assay [5] and in assay [6] was less than 2.39 µg/mL in each case. Also, the MIC in assay [7] and in assay [8] was less than 2.39 µg/mL each time.

For `CCn1c(S)nnc1CN1CCN(c2cc3c(cc2F)c(=O)c(C(=O)O)cn3CC)CC1`, the MIC in assay [9], in assay [3], in [4], in assay [5], in [7] and in [8] was less than 0.24 µg/mL each time.

As to `COc1c(N2C[C@H]3CCCN(S(=O)(=O)c4ccc(F)cc4)[C@H]3C2)c(F)cc2c(=O)c(C(=O)O)cn(C3CC3)c12`, the MIC in assay [1], in assay [2], in assay [3], in [4], in assay [5] and in [6] was less than 2.42 µg/mL each time. Also, the MIC in assay [7] and in [8] was less than 2.42 µg/mL each time.

For the compound `COc1ccc(S(=O)(=O)N2CCC[C@@H]3CN(c4c(F)cc5c(=O)c(C(=O)O)cn(C6CC6)c5c4OC)C[C@@H]32)cc1`, the MIC in [1], in assay [2], in assay [3], in assay [4], in assay [5] and in assay [6] was less than 2.42 µg/mL in each case. Moreover, the MIC in [7] and in [8] was less than 2.42 µg/mL in each case.

On to `COc1c(N2C[C@H]3CCCN(Cc4ccccc4)[C@H]3C2)c(F)cc2c(=O)c(C(=O)O)cn(C3CC3)c12`, for which the MIC in [1], in assay [2], in assay [3], in assay [4], in assay [5] and in assay [6] was less than 2.39 µg/mL in each case. For the same compound, the MIC in assay [7] and in [8] was less than 2.39 µg/mL throughout.

In the case of `COc1c(N2C[C@H]3CCCN(Cc4ccc(F)cc4)[C@H]3C2)c(F)cc2c(=O)c(C(=O)O)cn(C3CC3)c12`, the minimal inhibitory concentration (MIC) in [1], in assay [2], in [3], in assay [4], in assay [5] and in [6] was less than 2.39 µg/mL each time. Also, the minimal inhibitory concentration (MIC) in assay [7] and in assay [8] was less than 2.39 µg/mL throughout.

Take `COc1c(N2C[C@H]3CCCN(S(=O)(=O)c4ccc(Br)cc4)[C@H]3C2)c(F)cc2c(=O)c(C(=O)O)cn(C3CC3)c12`: the MIC in assay [1], in assay [2], in assay [3], in [4], in [5] and in assay [6] was less than 2.42 µg/mL in each case. The MIC in assay [7] and in assay [8] was less than 2.42 µg/mL each time.
